Test results: paper PMC3399817 (PLoS ONE, 2012)

How the values were obtained:
Assay type in all cases: binding
PRP4 = molecular target: T1, PRP4 (Homo sapiens, UniProt Q13523); experiment: KINOMEscan; settings: PRP4, 1 uM
T1 construct: purchased Ambit KINOMEscan (DiscoverX)

SRPK2 = molecular target: T2, SRPK2 (Homo sapiens, UniProt P78362); experiment: KINOMEscan; settings: SRPK2, 1 uM
T2 construct: purchased Ambit KINOMEscan (DiscoverX)
Experimental: (§1) First, we used Ambit's KINOMEscan™ technology to identify those kinases that are inhibited for substrate binding by the compounds, all assayed at 1 μM. Second, we used Invitrogen's SelectScreen® Biochemical Kinase Profiling Service to determine the in vitro IC50s for the compounds against specific kinases.

SRPK3 = molecular target: T3, SRPK3 (Homo sapiens, UniProt Q9UPE1); experiment: KINOMEscan; settings: SRPK3, 1 uM
T3 construct: purchased Ambit KINOMEscan (DiscoverX)
Experimental: as §1

CDK3 = molecular target: T4, CDK3 (Homo sapiens, UniProt Q00526); experiment: KINOMEscan; settings: CDK3, 1 uM
T4 construct: purchased Ambit KINOMEscan (DiscoverX)
Experimental: as §1

CDC2L1 = molecular target: T5, CDC2L1 (Homo sapiens, UniProt P21127); experiment: KINOMEscan; settings: CDC2L1, 1 uM
T5 construct: purchased Ambit KINOMEscan (DiscoverX)
Experimental: as §1

FGFR1 = molecular target: T6, FGFR1 (Homo sapiens, UniProt P11362); experiment: KINOMEscan; settings: FGFR1, 1 uM
T6 construct: purchased Ambit KINOMEscan (DiscoverX)
Experimental: as §1

DRAK2 = molecular target: T7, DRAK2 (Homo sapiens, UniProt O94768); experiment: KINOMEscan; settings: DRAK2, 1 uM
T7 construct: purchased Ambit KINOMEscan (DiscoverX)
Experimental: as §1

ADCK3 = molecular target: T8, ADCK3 (Homo sapiens, UniProt Q8NI60); experiment: KINOMEscan; settings: ADCK3, 1 uM
T8 construct: purchased Ambit KINOMEscan (DiscoverX)
Experimental: as §1

EPHA5 = molecular target: T9, EPHA5 (Homo sapiens, UniProt P54756); experiment: KINOMEscan; settings: EPHA5, 1 uM
T9 construct: purchased Ambit KINOMEscan (DiscoverX)
Experimental: as §1

MAP4K4 = molecular target: T10, MAP4K4 (Homo sapiens, UniProt O95819); experiment: KINOMEscan; settings: MAP4K4, 1 uM
T10 construct: purchased Ambit KINOMEscan (DiscoverX)
Experimental: as §1

HUNK = molecular target: T11, HUNK (Homo sapiens, UniProt P57058); experiment: KINOMEscan; settings: 1 uM
T11 construct: purchased Ambit KINOMEscan (DiscoverX)
Experimental: as §1

PIM3 = molecular target: T12, PIM3 (Homo sapiens, UniProt Q86V86); experiment: KINOMEscan; settings: PIM3, 1 uM
T12 construct: purchased Ambit KINOMEscan (DiscoverX)
Experimental: as §1

RIOK2 = molecular target: T13, RIOK2 (Homo sapiens, UniProt Q9BVS4); experiment: KINOMEscan; settings: RIOK2, 1 uM
T13 construct: purchased Ambit KINOMEscan (DiscoverX)
Experimental: as §1

PLK2 = molecular target: T14, PLK2 (Homo sapiens, UniProt Q9NYY3); experiment: KINOMEscan; settings: PLK2, 1 uM
T14 construct: purchased Ambit KINOMEscan (DiscoverX)
Experimental: as §1

TTK = molecular target: T15, TTK (Homo sapiens, UniProt P33981); experiment: KINOMEscan; settings: 1 uM
T15 construct: purchased Ambit KINOMEscan (DiscoverX)
Experimental: as §1

CDK8 = molecular target: T16, CDK8 (Homo sapiens, UniProt P49336); experiment: KINOMEscan; settings: CDK8, 1 uM
T16 construct: purchased Ambit KINOMEscan (DiscoverX)
Experimental: as §1

PRKCE = molecular target: T17, PRKCE (Homo sapiens, UniProt Q02156); experiment: KINOMEscan; settings: 1 uM
T17 construct: purchased Ambit KINOMEscan (DiscoverX)
Experimental: as §1

IRAK1 = molecular target: T18, IRAK1 (Homo sapiens, UniProt P51617); experiment: KINOMEscan; settings: IRAK1, 1 uM
T18 construct: purchased Ambit KINOMEscan (DiscoverX)
Experimental: as §1

EPHB4 = molecular target: T19, EPHB4 (Homo sapiens, UniProt P54760); experiment: KINOMEscan; settings: EPHB4, 1 uM
T19 construct: purchased Ambit KINOMEscan (DiscoverX)
Experimental: as §1

MEK2 = molecular target: T20, MEK2 (Homo sapiens, UniProt P36507); experiment: KINOMEscan; settings: MEK2, 1 uM
T20 construct: purchased Ambit KINOMEscan (DiscoverX)
Experimental: as §1

FGFR4 = molecular target: T21, FGFR4 (Homo sapiens, UniProt P22455); experiment: KINOMEscan; settings: FGFR4, 1 uM
T21 construct: purchased Ambit KINOMEscan (DiscoverX)
Experimental: as §1

MST1 = molecular target: T22, MST1 (Homo sapiens, UniProt Q13043); experiment: KINOMEscan; settings: MST1, 1 uM
T22 construct: purchased Ambit KINOMEscan (DiscoverX)
Experimental: as §1

YANK3 = molecular target: T23, YANK3 (Homo sapiens, UniProt Q86UX6); experiment: KINOMEscan; settings: YANK3, 1 uM
T23 construct: purchased Ambit KINOMEscan (DiscoverX)
Experimental: as §1

TAK1 = molecular target: T24, TAK1 (Homo sapiens, UniProt O43318); experiment: KINOMEscan; settings: TAK1, 1 uM
T24 construct: purchased Ambit KINOMEscan (DiscoverX)
Experimental: as §1

CSK = molecular target: T25, CSK (Homo sapiens, UniProt P41240); experiment: KINOMEscan; settings: 1 uM
T25 construct: purchased Ambit KINOMEscan (DiscoverX)
Experimental: as §1

BRSK1 = molecular target: T26, BRSK1 (Homo sapiens, UniProt Q8TDC3); experiment: KINOMEscan; settings: BRSK1, 1 uM
T26 construct: purchased Ambit KINOMEscan (DiscoverX)
Experimental: as §1

TESK1 = molecular target: T27, TESK1 (Homo sapiens, UniProt Q15569); experiment: KINOMEscan; settings: TESK1, 1 uM
T27 construct: purchased Ambit KINOMEscan (DiscoverX)
Experimental: as §1

CAMK2A = molecular target: T28, CAMK2A (Homo sapiens, UniProt Q9UQM7); experiment: KINOMEscan; settings: 1 uM
T28 construct: purchased Ambit KINOMEscan (DiscoverX)
Experimental: as §1

[1] = molecular target: T29, ABL1(E255K)-phosphorylated (Homo sapiens, UniProt P00519, E255K); experiment: KINOMEscan; settings: 1 uM
T29 construct: purchased Ambit KINOMEscan (DiscoverX)
Experimental: as §1

NLK = molecular target: T30, NLK (Homo sapiens, UniProt Q9UBE8); experiment: KINOMEscan; settings: 1 uM
T30 construct: purchased Ambit KINOMEscan (DiscoverX)
Experimental: as §1

JNK3 = molecular target: T31, JNK3 (Homo sapiens, UniProt P53779); experiment: KINOMEscan; settings: JNK3, 1 uM
T31 construct: purchased Ambit KINOMEscan (DiscoverX)
Experimental: as §1

ACVR1B = molecular target: T32, ACVR1B (Homo sapiens, UniProt P36896); experiment: KINOMEscan; settings: 1 uM
T32 construct: purchased Ambit KINOMEscan (DiscoverX)
Experimental: as §1

AAK1 = molecular target: T33, AAK1 (Homo sapiens, UniProt Q2M2I8); experiment: KINOMEscan; settings: AAK1, 1 uM
T33 construct: purchased Ambit KINOMEscan (DiscoverX)
Experimental: as §1

EGFR(L858R) = molecular target: T34, EGFR(L858R) (Homo sapiens, UniProt P00533, L858R); experiment: KINOMEscan; settings: 1 uM
T34 construct: purchased Ambit KINOMEscan (DiscoverX)
Experimental: as §1

PRKG1 = molecular target: T35, PRKG1 (Homo sapiens, UniProt Q13976); experiment: KINOMEscan; settings: PRKG1, 1 uM
T35 construct: purchased Ambit KINOMEscan (DiscoverX)
Experimental: as §1

AURKA = molecular target: T36, AURKA (Homo sapiens, UniProt O14965); experiment: KINOMEscan; settings: 1 uM
T36 construct: purchased Ambit KINOMEscan (DiscoverX)
Experimental: as §1

TNNI3K = molecular target: T37, TNNI3K (Homo sapiens, UniProt Q59H18); experiment: KINOMEscan; settings: 1 uM
T37 construct: purchased Ambit KINOMEscan (DiscoverX)
Experimental: as §1

panel of 402 kinases = experiment: KINOMEscan panel; settings: 1 μM
Experimental: as §1

MAPKAPK2 = molecular target: T38, MAPKAPK2 (Homo sapiens, UniProt P49137); experiment: KINOMEscan; settings: MAPKAPK2, 1 uM
T38 construct: purchased Ambit KINOMEscan (DiscoverX)

T30 sequence (Q9UBE8 whole entry): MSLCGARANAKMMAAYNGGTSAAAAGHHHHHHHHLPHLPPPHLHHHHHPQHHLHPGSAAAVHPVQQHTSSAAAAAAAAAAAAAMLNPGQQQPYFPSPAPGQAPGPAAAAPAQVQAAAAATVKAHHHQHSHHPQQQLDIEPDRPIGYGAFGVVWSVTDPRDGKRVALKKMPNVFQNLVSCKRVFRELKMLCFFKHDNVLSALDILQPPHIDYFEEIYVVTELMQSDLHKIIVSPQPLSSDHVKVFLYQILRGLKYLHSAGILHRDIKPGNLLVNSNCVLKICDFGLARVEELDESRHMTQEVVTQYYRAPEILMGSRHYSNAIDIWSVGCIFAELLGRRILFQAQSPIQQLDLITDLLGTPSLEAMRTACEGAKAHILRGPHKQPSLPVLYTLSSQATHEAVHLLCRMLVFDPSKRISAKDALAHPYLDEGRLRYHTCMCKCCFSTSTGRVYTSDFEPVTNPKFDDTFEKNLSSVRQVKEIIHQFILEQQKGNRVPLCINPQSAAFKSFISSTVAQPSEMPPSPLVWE
T17 sequence (Q02156 whole entry): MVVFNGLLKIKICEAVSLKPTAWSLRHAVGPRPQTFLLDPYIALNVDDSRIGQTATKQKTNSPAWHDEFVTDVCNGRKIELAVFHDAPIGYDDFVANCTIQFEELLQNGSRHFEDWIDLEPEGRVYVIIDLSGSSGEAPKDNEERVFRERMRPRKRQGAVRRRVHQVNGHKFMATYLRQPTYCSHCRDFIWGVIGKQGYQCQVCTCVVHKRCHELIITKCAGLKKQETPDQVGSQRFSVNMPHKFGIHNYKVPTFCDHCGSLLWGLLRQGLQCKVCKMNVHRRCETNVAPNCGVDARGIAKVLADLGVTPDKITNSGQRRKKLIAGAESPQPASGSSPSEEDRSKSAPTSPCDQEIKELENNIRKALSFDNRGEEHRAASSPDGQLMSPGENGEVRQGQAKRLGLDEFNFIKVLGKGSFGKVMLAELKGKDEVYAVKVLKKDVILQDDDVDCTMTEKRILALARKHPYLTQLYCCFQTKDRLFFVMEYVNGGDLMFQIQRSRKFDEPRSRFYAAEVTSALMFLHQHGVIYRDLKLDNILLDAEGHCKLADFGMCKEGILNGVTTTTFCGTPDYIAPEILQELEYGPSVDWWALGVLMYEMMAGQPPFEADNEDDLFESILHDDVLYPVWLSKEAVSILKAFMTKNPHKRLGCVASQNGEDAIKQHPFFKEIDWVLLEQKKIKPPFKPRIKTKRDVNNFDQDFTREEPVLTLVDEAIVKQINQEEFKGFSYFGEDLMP
T8 sequence (Q8NI60 163-647): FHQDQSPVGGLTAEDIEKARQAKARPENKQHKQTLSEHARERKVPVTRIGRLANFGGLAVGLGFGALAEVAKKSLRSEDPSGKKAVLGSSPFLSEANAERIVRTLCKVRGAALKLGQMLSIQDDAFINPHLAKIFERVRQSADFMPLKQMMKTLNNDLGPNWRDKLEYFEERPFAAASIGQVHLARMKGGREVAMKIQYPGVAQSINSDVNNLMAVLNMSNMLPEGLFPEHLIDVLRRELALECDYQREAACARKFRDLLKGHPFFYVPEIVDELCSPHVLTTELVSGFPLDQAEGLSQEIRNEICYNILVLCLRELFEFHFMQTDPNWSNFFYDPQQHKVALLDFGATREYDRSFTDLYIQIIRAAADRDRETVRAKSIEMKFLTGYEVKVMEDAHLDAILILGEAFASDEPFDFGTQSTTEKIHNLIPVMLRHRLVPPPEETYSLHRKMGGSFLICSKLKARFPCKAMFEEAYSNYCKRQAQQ
T31 sequence (P53779 whole entry): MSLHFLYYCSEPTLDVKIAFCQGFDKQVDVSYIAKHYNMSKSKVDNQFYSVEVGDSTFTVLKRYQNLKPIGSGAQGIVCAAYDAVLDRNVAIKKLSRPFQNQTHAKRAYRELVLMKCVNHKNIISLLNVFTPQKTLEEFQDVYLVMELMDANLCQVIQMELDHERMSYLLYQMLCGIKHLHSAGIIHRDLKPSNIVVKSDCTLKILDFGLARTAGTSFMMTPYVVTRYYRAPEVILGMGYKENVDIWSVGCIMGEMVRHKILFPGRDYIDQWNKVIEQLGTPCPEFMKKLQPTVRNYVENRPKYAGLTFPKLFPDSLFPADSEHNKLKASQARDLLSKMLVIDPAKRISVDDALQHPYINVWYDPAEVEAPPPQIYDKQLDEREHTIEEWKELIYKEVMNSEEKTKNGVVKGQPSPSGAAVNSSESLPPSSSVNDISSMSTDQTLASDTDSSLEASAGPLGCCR
T16 sequence (P49336 whole entry): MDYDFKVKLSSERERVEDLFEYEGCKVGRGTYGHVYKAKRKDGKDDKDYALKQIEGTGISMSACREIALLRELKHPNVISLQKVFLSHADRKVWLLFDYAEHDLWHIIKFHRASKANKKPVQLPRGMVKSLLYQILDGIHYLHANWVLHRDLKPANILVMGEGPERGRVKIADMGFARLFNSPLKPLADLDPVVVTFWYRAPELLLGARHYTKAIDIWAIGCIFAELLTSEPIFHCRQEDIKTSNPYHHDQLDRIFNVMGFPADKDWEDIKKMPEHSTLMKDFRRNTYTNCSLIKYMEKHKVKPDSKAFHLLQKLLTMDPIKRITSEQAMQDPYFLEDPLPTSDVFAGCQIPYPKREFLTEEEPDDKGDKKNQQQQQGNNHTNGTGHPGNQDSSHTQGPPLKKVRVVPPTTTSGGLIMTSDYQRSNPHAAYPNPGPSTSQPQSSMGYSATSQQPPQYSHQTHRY
T14 sequence (Q9NYY3 whole entry): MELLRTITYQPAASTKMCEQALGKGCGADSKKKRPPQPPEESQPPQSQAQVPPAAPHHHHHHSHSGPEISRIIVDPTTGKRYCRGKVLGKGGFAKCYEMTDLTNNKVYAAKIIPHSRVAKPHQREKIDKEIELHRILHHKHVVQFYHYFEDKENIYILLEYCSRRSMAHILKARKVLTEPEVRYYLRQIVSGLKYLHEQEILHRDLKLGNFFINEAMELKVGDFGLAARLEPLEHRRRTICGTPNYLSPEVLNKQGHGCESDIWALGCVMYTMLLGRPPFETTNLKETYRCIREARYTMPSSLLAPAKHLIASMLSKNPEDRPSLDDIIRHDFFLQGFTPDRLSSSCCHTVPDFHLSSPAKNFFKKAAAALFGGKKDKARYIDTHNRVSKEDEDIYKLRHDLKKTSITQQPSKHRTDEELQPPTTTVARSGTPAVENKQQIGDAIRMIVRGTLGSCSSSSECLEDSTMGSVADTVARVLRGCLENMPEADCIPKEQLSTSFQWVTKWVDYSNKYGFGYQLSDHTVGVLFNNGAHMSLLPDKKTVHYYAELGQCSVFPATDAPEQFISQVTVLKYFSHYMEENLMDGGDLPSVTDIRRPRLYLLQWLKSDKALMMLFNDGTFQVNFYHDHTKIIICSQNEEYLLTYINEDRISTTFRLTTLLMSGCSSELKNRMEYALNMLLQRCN
T26 sequence (Q8TDC3 whole entry): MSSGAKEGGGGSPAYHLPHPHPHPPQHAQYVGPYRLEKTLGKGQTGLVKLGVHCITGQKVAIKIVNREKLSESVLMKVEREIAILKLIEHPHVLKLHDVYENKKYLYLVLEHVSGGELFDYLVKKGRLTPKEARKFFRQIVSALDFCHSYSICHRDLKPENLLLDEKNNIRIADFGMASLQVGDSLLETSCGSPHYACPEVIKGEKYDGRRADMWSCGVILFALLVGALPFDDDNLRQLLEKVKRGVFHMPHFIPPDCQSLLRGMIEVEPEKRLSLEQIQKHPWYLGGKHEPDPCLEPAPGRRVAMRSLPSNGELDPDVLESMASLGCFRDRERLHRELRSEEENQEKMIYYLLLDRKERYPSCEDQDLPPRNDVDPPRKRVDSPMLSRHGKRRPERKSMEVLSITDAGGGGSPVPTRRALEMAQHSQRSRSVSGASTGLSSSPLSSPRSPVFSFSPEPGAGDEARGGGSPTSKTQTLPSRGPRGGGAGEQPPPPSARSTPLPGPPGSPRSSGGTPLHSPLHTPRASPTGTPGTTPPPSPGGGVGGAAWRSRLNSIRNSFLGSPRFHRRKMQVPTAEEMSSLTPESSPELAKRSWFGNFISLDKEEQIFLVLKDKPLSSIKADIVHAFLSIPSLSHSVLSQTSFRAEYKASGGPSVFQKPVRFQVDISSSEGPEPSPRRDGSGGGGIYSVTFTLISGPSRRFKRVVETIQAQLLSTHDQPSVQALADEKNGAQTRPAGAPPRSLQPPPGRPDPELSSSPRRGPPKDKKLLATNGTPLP
T20 sequence (P36507 whole entry): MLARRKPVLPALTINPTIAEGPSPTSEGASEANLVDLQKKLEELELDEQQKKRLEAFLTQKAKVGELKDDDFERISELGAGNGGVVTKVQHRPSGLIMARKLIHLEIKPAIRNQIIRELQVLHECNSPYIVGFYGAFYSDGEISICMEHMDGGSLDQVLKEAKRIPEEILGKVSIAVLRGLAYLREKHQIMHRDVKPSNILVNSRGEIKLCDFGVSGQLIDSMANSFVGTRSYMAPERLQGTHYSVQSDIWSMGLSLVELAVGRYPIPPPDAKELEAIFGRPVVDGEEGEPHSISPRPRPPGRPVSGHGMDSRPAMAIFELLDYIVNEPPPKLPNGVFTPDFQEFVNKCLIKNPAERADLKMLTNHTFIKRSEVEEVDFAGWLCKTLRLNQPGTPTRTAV

SMILES	% binding compared to no inhibitor control (PRP4)	% binding compared to no inhibitor control (SRPK2)	% binding compared to no inhibitor control (SRPK3)	% binding compared to no inhibitor control (CDK3)	% binding compared to no inhibitor control (CDC2L1)	% binding compared to no inhibitor control (FGFR1)	% binding compared to no inhibitor control (DRAK2)	% binding compared to no inhibitor control (ADCK3)	% binding compared to no inhibitor control (EPHA5)	% binding compared to no inhibitor control (MAP4K4)	% binding compared to no inhibitor control (HUNK)	% binding compared to no inhibitor control (PIM3)	% binding compared to no inhibitor control (RIOK2)	% binding compared to no inhibitor control (PLK2)	% binding compared to no inhibitor control (TTK)	% binding compared to no inhibitor control (CDK8)	% binding compared to no inhibitor control (PRKCE)	% binding compared to no inhibitor control (IRAK1)	% binding compared to no inhibitor control (EPHB4)	% binding compared to no inhibitor control (MEK2)	other results
COc1ccc(-c2cc3nccn3c(Nc3ncccc3C(N)=O)n2)cc1OC.Cl.Cl [BAY61-3606, 2-[7-(3,4-dimethoxyphenyl)-imidazo [1,2-c]pyrimidin-5-ylamino] nicotinamide dihydrochloride, reference compound]	77%	53%	74%	89%	95%	93%	15%	99%	77%	94%	67%	81%	4%	50%	51%	62%	30%	8%	86%	86%	% binding compared to no inhibitor control (FGFR4): 100%; % binding compared to no inhibitor control (MST1): 85%; % binding compared to no inhibitor control (YANK3): 53%; % binding compared to no inhibitor control (TAK1): 63%; % binding compared to no inhibitor control (CSK): 68%; % binding compared to no inhibitor control (BRSK1): 82%; % binding compared to no inhibitor control (TESK1): 90%; % binding compared to no inhibitor control (CAMK2A): 64%; % binding compared to no inhibitor control [1]: 100%; % binding compared to no inhibitor control (NLK): 88%; % binding compared to no inhibitor control (JNK3): 41%; % binding compared to no inhibitor control (ACVR1B): 100%; % binding compared to no inhibitor control (AAK1): 1.6%; % binding compared to no inhibitor control (EGFR(L858R)): 100%; % binding compared to no inhibitor control (PRKG1): 70%; % binding compared to no inhibitor control (AURKA): 91%; % binding compared to no inhibitor control (TNNI3K): 100%; number of kinases with binding inhibited by greater than 90% (panel of 402 kinases; panel of 402 kinases): 15 kinases; % binding compared to no inhibitor control (MAPKAPK2): 100%
COc1ccccc1Nc1nc(-c2ccc(OC)c(OC)c2)cc2nccn12 [BAY derivative 6]	100%	90%	100%	94%	100%	100%	100%	87%	100%	86%	75%	82%	80%	100%	74%	100%	100%	92%	97%	100%	% binding compared to no inhibitor control (FGFR4): 100%; % binding compared to no inhibitor control (MST1): 87%; % binding compared to no inhibitor control (YANK3): 100%; % binding compared to no inhibitor control (TAK1): 96%; % binding compared to no inhibitor control (CSK): 99%; % binding compared to no inhibitor control (BRSK1): 100%; % binding compared to no inhibitor control (TESK1): 100%; % binding compared to no inhibitor control (CAMK2A): 96%; % binding compared to no inhibitor control [1]: 60%; % binding compared to no inhibitor control (NLK): 82%; % binding compared to no inhibitor control (JNK3): 100%; % binding compared to no inhibitor control (ACVR1B): 100%; % binding compared to no inhibitor control (AAK1): 52%; % binding compared to no inhibitor control (EGFR(L858R)): 88%; % binding compared to no inhibitor control (PRKG1): 100%; % binding compared to no inhibitor control (AURKA): 87%; % binding compared to no inhibitor control (TNNI3K): 100%; ability to competitively inhibit active site (ATP) binding across the kinase panel (panel of 402 kinases): failed to effectively inhibit ATP binding by the majority of kinases; % binding compared to no inhibitor control (MAPKAPK2): 93%
